# Test results taken from patent US9662327B2 (AGIOS PHARMACEUTICALS, INC, priority 2011, dated 2017).
# Biological target: IDH1 R132H (Homo sapiens (Human), UniProt O75874, R132H)
# Assay: Assays for IDH1 R132H Inhibitors (NADPH/aKG, resazurin detection)
# Assay type: biochemical
# Settings: IDH1 R132H enzyme, Table 2; read-out: IDHR132H Activity
# Outline: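 Mutant enzyme in 150 mM NaCl, 10 mM MgCl2, 20 mM Tris pH 7.5, 0.03% BSA; compound in DMSO added to substrate mix of 8 uM NADPH and 2 mM aKG. Reaction ran 50 min at room temperature, then resazurin detection mix (30 μM) added for 5 min at room temperature.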
# IDH1 R132H, sequence (O75874 whole entry R132H): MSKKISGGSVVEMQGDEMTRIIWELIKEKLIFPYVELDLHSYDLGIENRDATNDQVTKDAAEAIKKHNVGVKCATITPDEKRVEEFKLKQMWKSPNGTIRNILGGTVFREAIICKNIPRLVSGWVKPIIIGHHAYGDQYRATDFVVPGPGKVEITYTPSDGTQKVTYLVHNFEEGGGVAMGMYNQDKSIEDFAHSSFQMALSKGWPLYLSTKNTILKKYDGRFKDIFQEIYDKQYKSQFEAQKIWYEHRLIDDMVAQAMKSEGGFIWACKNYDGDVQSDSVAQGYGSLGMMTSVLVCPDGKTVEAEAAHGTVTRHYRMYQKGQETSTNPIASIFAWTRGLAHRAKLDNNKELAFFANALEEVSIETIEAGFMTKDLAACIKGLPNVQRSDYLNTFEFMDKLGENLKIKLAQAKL
row,SMILES,IC50 [µM]
1,Cc1nc2ccccn2c1C(=O)N1CCN(c2nc(C3CC3)c3c(c2C#N)CC(C)(C)OC3)C[C@H]1C(C)C [Compound 229],1 to 10
2,"CC(C)[C@@H]1CN(c2nc(C3CC3)c3c(c2C#N)CC(C)(C)OC3)CCN1C(=O)c1cnn2cccnc12 [Compound 232, (R)-8-cyclopropyl-6-(3-isopropyl-4-(pyrazolo[1,5-a]pyrimidine-3-carbonyl)piperazin-1-yl)-3,3-dimethyl-3,4-dihydro-1H-pyrano[3,4-c]pyridine-5-carbonitrile]",1 to 10
3,"COc1cccc(CC(=O)N2CCN(c3nc(C(C)C)c4c(c3C#N)CC(C)(C)OC4)C[C@H]2C(C)C)c1 [Compound 233, (R)-8-isopropyl-6-(3-isopropyl-4-(2-(3-methoxyphenyl)acetyl)piperazin-1-yl)-3,3-dimethyl-3,4-dihydro-1H-pyrano[3,4-c]pyridine-5-carbonitrile]",1 to 10
4,"CC(C)c1nc(N2CCN(C(=O)Cc3cccc(F)c3)[C@H](C(C)C)C2)c(C#N)c2c1COC(C)(C)C2 [Compound 234, (R)-6-(4-(2-(3-fluorophenyl)acetyl)-3-isopropylpiperazin-1-yl)-8-isopropyl-3,3-dimethyl-3,4-dihydro-1H-pyrano[3,4-c]pyridine-5-carbonitrile]",1 to 10
5,CC[C@@H]1CN(c2nc(C3CC3)c3c(c2C#N)CC(C)(C)OC3)CCN1C(=O)c1ccoc1 [Compound 235],< 0.5
6,"CC[C@@H]1CN(c2nc(C3CC3)c3c(c2C#N)CC(C)(C)OC3)CCN1C(=O)c1ccoc1C [Compound 237, (R)-8-cyclopropyl-6-(3-ethyl-4-(2-methylfuran-3-carbonyl)piperazin-1-yl)-3,3-dimethyl-3,4-dihydro-1H-pyrano[3,4-c]pyridine-5-carbonitrile]",< 0.5
7,Cc1cc(C(=O)N2CCN(c3nc(C4CC4)c4c(c3C#N)CC(C)(C)OC4)C[C@H]2C)c(C)o1 [Compound 244],1 to 10
8,"Cc1cncc(C(=O)N2CCN(c3nc(C4CC4)c4c(c3C#N)CC(C)(C)OC4)C[C@H]2C(C)C)c1 [Compound 245, (R)-8-cyclopropyl-6-(3-isopropyl-4-(5-methylnicotinoyl)piperazin-1-yl)-3,3-dimethyl-3,4-dihydro-1H-pyrano[3,4-c]pyridine-5-carbonitrile]",1 to 10
9,"CC(C)c1nc(N2CCN(C(=O)c3cccs3)[C@H](C)C2)c(C#N)c2c1COC(C)(C)C2 [Compound 246, (R)-8-isopropyl-3,3-dimethyl-6-(3-methyl-4-(thiophene-2-carbonyl)piperazin-1-yl)-3,4-dihydro-1H-pyrano[3,4-c]pyridine-5-carbonitrile]",1 to 10
10,"CC(C)c1nc(N2CCN(C(=O)c3csc4ccccc34)[C@H](C)C2)c(C#N)c2c1COC(C)(C)C2 [Compound 247, (R)-6-(4-(benzo[b]thiophene-3-carbonyl)-3-methylpiperazin-1-yl)-8-isopropyl-3,3-dimethyl-3,4-dihydro-1H-pyrano[3,4-c]pyridine-5-carbonitrile]",1 to 10
11,"CC(C)c1nc(N2CCN(C(=O)Cc3cccnc3)[C@H](C)C2)c(C#N)c2c1COC(C)(C)C2 [Compound 248, (R)-8-isopropyl-3,3-dimethyl-6-(3-methyl-4-(2-(pyridin-3-yl)acetyl)piperazin-1-yl)-3,4-dihydro-1H-pyrano[3,4-c]pyridine-5-carbonitrile]",1 to 10
12,"CC(C)c1nc(N2CCN(C(=O)c3cccnc3)[C@H](C)C2)c(C#N)c2c1COC(C)(C)C2 [Compound 249, (R)-8-isopropyl-3,3-dimethyl-6-(3-methyl-4-nicotinoylpiperazin-1-yl)-3,4-dihydro-1H-pyrano[3,4-c]pyridine-5-carbonitrile]",1 to 10
13,"CC(C)c1nc(N2CCN(C(=O)Cc3cccnc3)[C@H](C(C)C)C2)c(C#N)c2c1COC(C)(C)C2 [Compound 250, (R)-8-isopropyl-6-(3-isopropyl-4-(2-(pyridin-3-yl)acetyl)piperazin-1-yl)-3,3-dimethyl-3,4-dihydro-1H-pyrano[3,4-c]pyridine-5-carbonitrile]",0.5 to 1
14,"CC(C)c1nc(N2CCN(C(=O)c3ccsc3)[C@H](C)C2)c(C#N)c2c1COC(C)(C)C2 [Compound 251, (R)-8-isopropyl-3,3-dimethyl-6-(3-methyl-4-(thiophene-3-carbonyl)piperazin-1-yl)-3,4-dihydro-1H-pyrano[3,4-c]pyridine-5-carbonitrile]",1 to 10
15,"CC(C)c1nc(N2CCN(C(=O)c3cscn3)[C@H](C)C2)c(C#N)c2c1COC(C)(C)C2 [Compound 252, (R)-8-isopropyl-3,3-dimethyl-6-(3-methyl-4-(thiazole-4-carbonyl)piperazin-1-yl)-3,4-dihydro-1H-pyrano[3,4-c]pyridine-5-carbonitrile]",1 to 10
16,"CC(C)c1nc(N2CCN(C(=O)C3CCOC3)[C@H](C)C2)c(C#N)c2c1COC(C)(C)C2 (stereo partly drawn) [Compound 253, 8-isopropyl-3,3-dimethyl-6-((3R)-3-methyl-4-(tetrahydrofuran-3-carbonyl)piperazin-1-yl)-3,4-dihydro-1H-pyrano[3,4-c]pyridine-5-carbonitrile]",1 to 10
17,"CC(C)c1nc(N2CCN(C(=O)c3ccoc3)[C@H](c3ccccc3)C2)c(C#N)c2c1COC(C)(C)C2 [Compound 256, (R)-6-(4-(furan-3-carbonyl)-3-phenylpiperazin-1-yl)-8-isopropyl-3,3-dimethyl-3,4-dihydro-1H-pyrano[3,4-c]pyridine-5-carbonitrile]",1 to 10
18,"CC(C)c1nc(N2CCN(C(=O)c3ccoc3)[C@@H](c3ccccc3)C2)c(C#N)c2c1COC(C)(C)C2 [Compound 257, (S)-6-(4-(furan-3-carbonyl)-3-phenylpiperazin-1-yl)-8-isopropyl-3,3-dimethyl-3,4-dihydro-1H-pyrano[3,4-c]pyridine-5-carbonitrile]",1 to 10
19,"CCOC(=O)C1CN(c2nc(C3CC3)c3c(c2C#N)CC(C)(C)OC3)CCN1C(=O)c1ccoc1 (stereo not drawn) [Compound 259, ethyl 4-(5-cyano-8-cyclopropyl-3,3-dimethyl-3,4-dihydro-1H-pyrano[3,4-c]pyridin-6-yl)-1-(furan-3-carbonyl)piperazine-2-carboxylate]",1 to 10

# The next lines start with the values.
row,IC50 [µM],SMILES
1,1 to 10,"COc1ccccc1CC(=O)N1CCN(c2nc(C3CCCCC3)c3c(c2C#N)CCOC3)C[C@H]1C [Compound 224, (R)-8-cyclohexyl-6-(4-(2-(2-methoxyphenyl)acetyl)-3-methylpiperazin-1-yl)-3,4-dihydro-1H-pyrano[3,4-c]pyridine-5-carbonitrile]"
2,1 to 10,"Cc1ncoc1C(=O)N1CCN(c2nc(C3CCCCC3)c3c(c2C#N)CCOC3)C[C@H]1C [Compound 225, (R)-8-cyclohexyl-6-(3-methyl-4-(4-methyloxazole-5-carbonyl)piperazin-1-yl)-3,4-dihydro-1H-pyrano[3,4-c]pyridine-5-carbonitrile]"
3,1 to 10,"C[C@@H]1CN(c2nc(C3CCCCC3)c3c(c2C#N)CCOC3)CCN1C(=O)c1cocn1 [Compound 226, (R)-8-cyclohexyl-6-(3-methyl-4-(oxazole-4-carbonyl)piperazin-1-yl)-3,4-dihydro-1H-pyrano[3,4-c]pyridine-5-carbonitrile]"
4,1 to 10,"C[C@@H]1CN(c2nc(C3CCCCC3)c3c(c2C#N)CCOC3)CCN1C(=O)c1cnc2ccccn12 [Compound 227, (R)-8-cyclohexyl-6-(4-(imidazo[1,2-a]pyridine-3-carbonyl)-3-methylpiperazin-1-yl)-3,4-dihydro-1H-pyrano[3,4-c]pyridine-5-carbonitrile]"
5,1 to 10,CC(C)[C@@H]1CN(c2nc(C3CC3)c3c(c2C#N)CC(C)(C)OC3)CCN1C(=O)Cc1ccccc1F [Compound 228]
6,< 0.5,CC[C@@H]1CN(c2nc(C3CC3)c3c(c2C#N)CC(C)(C)OC3)CCN1C(=O)Cc1cccs1 [Compound 236]
7,1 to 10,"C[C@@H]1CN(c2nc(C3CCCCC3)c3c(c2C#N)CCOC3)CCN1C(=O)Cc1ccccn1 [Compound 238, (R)-8-cyclohexyl-6-(3-methyl-4-(2-(pyridin-2-yl)acetyl)piperazin-1-yl)-3,4-dihydro-1H-pyrano[3,4-c]pyridine-5-carbonitrile]"
8,1 to 10,"C[C@@H]1CN(c2nc(C3CCCCC3)c3c(c2C#N)CCOC3)CCN1C(=O)c1cscn1 [Compound 239, (R)-8-cyclohexyl-6-(3-methyl-4-(thiazole-4-carbonyl)piperazin-1-yl)-3,4-dihydro-1H-pyrano[3,4-c]pyridine-5-carbonitrile]"
9,1 to 10,"COCCC(=O)N1CCN(c2nc(C3CCCCC3)c3c(c2C#N)CCOC3)C[C@H]1C [Compound 240, (R)-8-cyclohexyl-6-(4-(3-methoxypropanoyl)-3-methylpiperazin-1-yl)-3,4-dihydro-1H-pyrano[3,4-c]pyridine-5-carbonitrile]"
10,1 to 10,"C[C@@H]1CN(c2nc(C3CCCCC3)c3c(c2C#N)CCOC3)CCN1C(=O)c1cccs1 [Compound 241, (R)-8-cyclohexyl-6-(3-methyl-4-(thiophene-2-carbonyl)piperazin-1-yl)-3,4-dihydro-1H-pyrano[3,4-c]pyridine-5-carbonitrile]"
11,1 to 10,"C[C@@H]1CN(c2nc(C3CCCCC3)c3c(c2C#N)CCOC3)CCN1C(=O)c1ccsc1 [Compound 242, (R)-8-cyclohexyl-6-(3-methyl-4-(thiophene-3-carbonyl)piperazin-1-yl)-3,4-dihydro-1H-pyrano[3,4-c]pyridine-5-carbonitrile]"
12,1 to 10,"C[C@@H]1CN(c2nc(C3CCCCC3)c3c(c2C#N)CCOC3)CCN1C(=O)c1csc2ccccc12 [Compound 243, (R)-6-(4-(benzo[b]thiophene-3-carbonyl)-3-methylpiperazin-1-yl)-8-cyclohexyl-3,4-dihydro-1H-pyrano[3,4-c]pyridine-5-carbonitrile]"
13,0.5 to 1,COc1cccc(CC(=O)N2CCN(c3nc(C4CC4)c4c(c3C#N)CC(C)(C)OC4)C[C@H]2C(C)C)c1 [Compound 254]
14,1 to 10,"CCOC(=O)C1CN(c2nc(C3CCCCC3)c3c(c2C#N)CCOC3)CCN1C(=O)c1ccoc1 (stereo not drawn) [Compound 258, ethyl 4-(5-cyano-8-cyclohexyl-3,4-dihydro-1H-pyrano[3,4-c]pyridin-6-yl)-1-(furan-3-carbonyl) piperazine-2-carboxylate]"
